In ChEMBL document CHEMBL3112514, “Insights into antioxidant activity of 1-adamantylthiopyridine analogs using multiple linear regression” (Eur J Med Chem, 2014):

Tests used:
[1] = test system: Radical scavenging activity; experiment: Antioxidant activity assessed as DPPH radical scavenging activity; assay type: functional; design: concentration or dose not given beside the values
[2] = Antioxidant activity assessed as inhibition of photoreduction of nitro blue tetrazolium after 7 mins by SOD activity assay; assay type: functional; design: concentration or dose not given beside the values

| SMILES | Activity [1] | inhibition [2] |
| --- | --- | --- |
| Oc1ccc(SC23CC4CC(CC(C4)C2)C3)nc1 | 0.3% | 45.5% |
| O=C(O)c1cccnc1SC12CC3CC(CC(C3)C1)C2 | 33.2% | 15.4% |
| Brc1cncc(SC23CC4CC(CC(C4)C2)C3)c1 | 17.1% | 53.3% |
| N#Cc1cccnc1SC12CC3CC(CC(C3)C1)C2 | 0.3% | 17.3% |
| CC(=O)Oc1cccnc1SC12CC3CC(CC(C3)C1)C2 | 7.03% | 16.8% |
| CC(=O)N(C(C)=O)c1cccnc1SC12CC3CC(CC(C3)C1)C2 | 17.7% | – |
| NC(=O)c1cccnc1SC12CC3CC(CC(C3)C1)C2 | 0.57% | 15.4% |
| Brc1cccnc1SC12CC3CC(CC(C3)C1)C2 | 21.1% | 17.2% |
| CCOc1cccnc1SC12CC3CC(CC(C3)C1)C2 | 14.2% | 31.8% |
